Read-outs that look alike come from different tables or passages of the source. Marks after values point to notes of the source that are not given here. Blank lines part the entries; values can stand above or below the molecule they belong to.
Log P (pH 2.7): 3.37^[a]
SMILES: CCOC(=O)C(C#N)=C(NC(C)c1nc(C)c(C)s1)c1c(C(F)F)nn(C)c1Cl (racemic) [Compound 235]

Log P (pH 2.7): 2.3^[a]
SMILES: C=Cc1nn(C)cc1C(NC(C)c1nccs1)=C(C#N)C(=O)OCC (racemic) [Compound 238]

Log P (pH 2.7): 3.21^[a]
SMILES: CCOC(=O)C(C#N)=C(NC(C)c1nccs1)c1nc(SC)ncc1Br (racemic) [Compound 240]

Log P (pH 2.7): 2.2[a]
SMILES: CCOC(=O)C(C#N)=C(NC(C)c1nc(C(C)C)no1)c1cc(Cl)ncc1Cl (racemic) [Compound 253]

Log P (pH 2.7): 3.83^[a]
SMILES: CCOC(=O)C(C#N)=C(NC(C)c1nc(C(F)(F)F)no1)c1cc(Cl)ncc1Cl (racemic) [Compound 254]

Log P (pH 2.7): 2.78^[a]
SMILES: CCOC(=O)C(C#N)=C(NC(C)c1nccs1)c1cnccc1Cl (racemic) [Compound 258]

Log P (pH 2.7): 2.9^[a]
SMILES: CCOC(=O)C(C#N)=C(NC(C)c1sc(C)nc1C)c1ccsc1Br (racemic) [Compound 261]

Log P (pH 2.7): 3.31^[a]
SMILES: CCOC(=O)C(C#N)=C(NC(C)c1nccs1)c1cc(Cl)cc(Cl)n1 (racemic) [Compound 265]

Log P (pH 2.7): 2.3^[a]
SMILES: CCOC(=O)C(C#N)=C(NC(C)c1c(C)nn(C)c1C)c1cccnc1Cl (racemic) [Compound 277]

Log P (pH 2.7): 4.4^[a]
SMILES: CCOC(=O)C(C#N)=C(NC(C)c1c(C)sc2c1CCCC2)c1cccnc1Cl (racemic) [Compound 280]

Log P (pH 2.7): 4.96^[a]
SMILES: CCOC(=O)C(C#N)=C(NC(C)c1ccc(Cl)cc1)c1cc(Cl)sc1Cl (racemic) [Compound 499]

Log P (pH 2.7): 3.51^[a]
SMILES: CCOC(=O)C(C#N)=C(NC(C)c1ccc(Cl)cc1)c1cn(C)nc1OC (racemic) [Compound 506]

Log P (pH 2.7): 3.15^[a]
SMILES: CCOC(=O)C(C#N)=C(Nc1ccccc1SC)c1cn(C)nc1C(C)F (racemic) [Compound 521]

Log P (pH 2.7): 4.56^[a]
SMILES: CCOC(=O)C(C#N)=C(NC(C)CCc1ccccc1)c1ccsc1Br (racemic) [Compound 538]

Log P (pH 2.7): 4.2^[a]
SMILES: CCOC(=O)C(C#N)=C(NC(C)c1ccc(Cl)cc1)c1cn(C)cc1C(F)(F)F (racemic) [Compound 542]

Log P (pH 2.7): 4.21^[a]
SMILES: CCOC(=O)C(C#N)=C(NCC(c1ccccc1)C(C)C)c1cccnc1Cl (racemic) [Compound 545]

Log P (pH 2.7): 3.78^[a]
SMILES: CCOC(=O)C(C#N)=C(NC(c1ccc(N(C)C)cc1)C(F)(F)F)c1cn(C)nc1C(F)F (racemic) [Compound 556]

Log P (pH 7.5): 2.13
SMILES: COCC(C)NC(=C(C#N)C(=O)OC)c1cccnc1Cl (racemic) [Compound 564]

Log P (pH 7.5): 2.38
SMILES: COC(=O)C(C#N)=C(NC(C)CSC)c1cccnc1Cl (racemic) [Compound 576]

Log P (pH 2.7): 1.13^[a]
SMILES: CCOC(=O)C(C#N)=C(NC(C)CN(C)C)c1cn(C)nc1C(F)F (racemic) [Compound 578]

Log P (pH 2.7): 0.84^[a]
SMILES: CCOC(=O)C(C#N)=C(NCC(C)N)c1cn(C)nc1C(F)F (racemic) [Compound 579]

Log P (pH 2.7): 0.82^[a]
SMILES: COC(=O)C(C#N)=C(NC(C)CN(C)C)c1cn(C)nc1C(F)F (racemic) [Compound 587]

Log P (pH 2.7): 1.59^[a]
SMILES: CCOC(=O)C(C#N)=C(NC(C)CN)c1ncc(C(F)(F)F)cc1Cl (racemic) [Compound 589]

Log P (pH 2.7): 1.5^[a]
SMILES: CCOC(=O)C(C#N)=C(NC(C)C(N)=O)c1cn(C)nc1C(F)F (racemic) [Compound 590]

Log P (pH 2.7): 0.58^[a]
SMILES: COC(=O)C(C#N)=C(NC(C)CN)c1cn(C)nc1C(F)F (racemic) [Compound 591]

Log P (pH 2.7): 2.17^[a]
SMILES: CCOC(=O)C(C#N)=C(NC(C)C(N)=O)c1ncc(C(F)(F)F)cc1Cl (racemic) [Compound 592]

Log P (pH 2.7): 3.31^[a]
SMILES: CCOC(=O)C(C#N)=C(NC(C)COC)c1sccc1C(F)(F)F (racemic) [Compound 655]

Log P (pH 2.7): 3.44^[a]
SMILES: CCOC(=O)C(C#N)=C(NC(C)C(=O)OCC)c1sccc1C(F)(F)F (racemic) [Compound 656]

Log P (pH 2.7): 3.69^[a]
SMILES: COC(=O)C(C#N)=C(NC(C)C(=O)Nc1ccc2ccccc2c1)c1sc(C)nc1C(F)(F)F (racemic) [Compound 661]

Log P (pH 2.7): 4.34^[a]
SMILES: COC(=O)C(C#N)=C(NC(C)COc1c(C)cccc1C)c1sc(C)nc1C(F)(F)F (racemic) [Compound 662]

Log P (pH 2.7): 2.75^[a]
SMILES: COCC(C)NC(=C(C#N)C(=O)OC)c1sc(C)nc1C(F)(F)F (racemic) [Compound 663]

Log P (pH 2.7): 2.96^[a]
SMILES: CCOC(=O)C(C)NC(=C(C#N)C(=O)OC)c1sc(C)nc1C(F)(F)F (racemic) [Compound 664]

Continued, molecule first:

SMILES: CCOC(=O)C(C#N)=C(NC(C)c1nccs1)c1c(C(F)F)nn(C)c1Cl (racemic) [Compound 234]
Log P (pH 2.7): 2.77^[a]

SMILES: CCOC(=O)C(C#N)=C(NC(C)Cc1c[nH]c2ccccc12)c1c(C(F)F)nn(C)c1Cl (racemic) [Compound 237]
Log P (pH 2.7): 3.42^[a]

SMILES: CCOC(=O)C(C#N)=C(NC(C)c1nccs1)c1sc(Cl)nc1Cl (racemic) [Compound 242]
Log P (pH 2.7): 3.27^[a]

SMILES: CCOC(=O)C(C#N)=C(NC(C)c1cccs1)c1ccsc1Br (racemic) [Compound 250]
Log P (pH 2.7): 3.99^[a]

SMILES: CCOC(=O)C(C#N)=C(NC(C)c1nccs1)c1cc(Cl)ncc1Cl (racemic) [Compound 252]
Log P (pH 2.7): 3.15^[a]

SMILES: CCOC(=O)C(C#N)=C(NC(C)c1nn(C)c(=O)n1C)c1cc(Cl)ncc1Cl (racemic) [Compound 255]
Log P (pH 2.7): 3.76^[a]

SMILES: CCOC(=O)C(C#N)=C(NC(C)c1nccs1)c1cnccc1C(F)(F)F (racemic) [Compound 256]
Log P (pH 2.7): 2.7^[a]

SMILES: CCOC(=O)C(C#N)=C(NC(C)c1nccs1)c1cnccc1Br (racemic) [Compound 257]
Log P (pH 2.7): 2.88^[a]

SMILES: CCOC(=O)C(C#N)=C(NC(C)c1ccccn1)c1ccncc1Cl (racemic) [Compound 260]
Log P (pH 2.7): 2.54^[a]

SMILES: CCOC(=O)C(C#N)=C(NC(C)c1ccn(C)n1)c1cccnc1C(F)F (racemic) [Compound 263]
Log P (pH 2.7): 2.18^[a]

SMILES: CCOC(=O)C(C#N)=C(NC(C)c1ccccn1)c1cccnc1C(F)F (racemic) [Compound 264]
Log P (pH 2.7): 2.46^[a]

SMILES: CCOC(=O)C(C#N)=C(NC(C)c1nccs1)c1cccnc1C(F)F (racemic) [Compound 266]
Log P (pH 2.7): 2.39^[a]

SMILES: C#CCOC(=O)C(C#N)=C(NC(C)c1nccs1)c1cccnc1Cl (racemic) [Compound 267]
Log P (pH 7.5): 2.26

SMILES: CC(NC(=C(C#N)C(=O)OC1CCC1)c1cccnc1Cl)c1nccs1 (racemic) [Compound 268]
Log P (pH 7.5): 2.88

SMILES: CNC(=O)C(C#N)=C(NC(C)c1nccs1)c1cccnc1Cl (racemic) [Compound 269]
Log P (pH 7.5): 1.69

SMILES: CCOC(=O)C(C#N)=C(NC(C)c1ccccn1)c1cn(C)cc1C(F)(F)F (racemic) [Compound 270]
Log P (pH 2.7): 2.92^[a]

SMILES: CCOC(=O)C(C#N)=C(NC(C)c1nccs1)c1cn(C)cc1C(F)(F)F (racemic) [Compound 271]
Log P (pH 2.7): 2.97^[a]

SMILES: CCOC(=O)C(C#N)=C(NC(C)CN1CCCCC1)c1cccnc1Cl (racemic) [Compound 273]
Log P (pH 2.7): 1.2^[a]

SMILES: CCOC(=O)C(C#N)=C(NC(C)CN1CCOCC1)c1cccnc1Cl (racemic) [Compound 274]
Log P (pH 2.7): 1.3^[a]

SMILES: CCOC(=O)C(C#N)=C(NC(C)c1cscn1)c1cccnc1Cl (racemic) [Compound 275]
Log P (pH 2.7): 2.4^[a]

SMILES: CCOC(=O)C(C#N)=C(NC(C)c1ccn(C)n1)c1cccnc1Cl (racemic) [Compound 276]
Log P (pH 2.7): 2.3^[a]

SMILES: CCOC(=O)C(C#N)=C(NC(C)Cn1cccn1)c1cccnc1Cl (racemic) [Compound 278]
Log P (pH 2.7): 2.23^[a]

SMILES: CCOC(=O)C(C#N)=C(NC(C)c1nc2ccccc2[nH]1)c1cccnc1Cl (racemic) [Compound 279]
Log P (pH 2.7): 2^[a]

SMILES: CCOC(=O)C(C#N)=C(NC(C)c1ccc(Cl)cc1)c1sc(Cl)nc1Cl (racemic) [Compound 526]
Log P (pH 2.7): 4.54^[a]

SMILES: CCOC(=O)C(C#N)=C(NC(C)c1ccc(F)cc1)c1ccsc1Br (racemic) [Compound 531]
Log P (pH 2.7): 3.89^[a]

SMILES: CCOC(=O)C(C#N)=C(NC(C)c1ccc(Cl)cc1)c1ccncc1Cl (racemic) [Compound 541]
Log P (pH 2.7): 3.78^[a]

SMILES: CCOC(=O)C(C#N)=C(NC(C)c1ccc(Cl)cc1)c1ccnc(Cl)c1Cl (racemic) [Compound 544]
Log P (pH 2.7): 4.21^[a]

SMILES: CCOC(=O)C(C#N)=C(NC(C)c1ccc(Cl)cc1)c1ccncc1F (racemic) [Compound 546]
Log P (pH 2.7): 3.48^[a]

SMILES: CCOC(=O)C(C#N)=C(NC1(c2c(F)cccc2F)CC1)c1cn(C)nc1C(C)F (racemic) [Compound 549]
Log P (pH 2.7): 3.23^[a]

SMILES: CCOC(=O)C(C#N)=C(NC(C)c1ccc(C(C)C)cc1)c1cn(C)nc1C(F)F (racemic) [Compound 550]
Log P (pH 2.7): 4.2^[a]

SMILES: CCOC(=O)C(C#N)=C(NC(C)c1ccc(Cl)cc1Cl)c1cn(C)nc1C(F)F (racemic) [Compound 552]
Log P (pH 2.7): 3.96^[a]

SMILES: CCOC(=O)C(C#N)=C(NC(C)c1ccccc1Cl)c1cn(C)nc1C(F)F (racemic) [Compound 553]
Log P (pH 2.7): 3.46^[a]

SMILES: CCOC(=O)C(C#N)=C(NC(C)c1cccc(Cl)c1)c1cn(C)nc1C(F)F (racemic) [Compound 554]
Log P (pH 2.7): 3.55^[a]

SMILES: CCOC(=O)C(C#N)=C(NC(CC)c1ccccc1OC)c1cn(C)nc1C(F)F (racemic) [Compound 557]
Log P (pH 2.7): 3.62^[a]

SMILES: CCOC(=O)C(C#N)=C(NC(CC)c1cccc(Cl)c1)c1cn(C)nc1C(F)F (racemic) [Compound 558]
Log P (pH 2.7): 3.87^[a]

SMILES: CCOC(=O)C(C#N)=C(NC(C)CN(C)C)c1ncc(C(F)(F)F)cc1Cl (racemic) [Compound 583]
Log P (pH 2.7): 1.63^[a]

SMILES: CCOC(=O)C(C#N)=C(NC(C)CN(C)C)c1c(C)nn(C)c1F (racemic) [Compound 584]
Log P (pH 2.7): 0.96^[a]

SMILES: CCOC(=O)C(C#N)=C(NC(C)CN(C)C)c1nsc(Cl)c1Cl (racemic) [Compound 588]
Log P (pH 2.7): 1.41^[a]

SMILES: CCOC(=O)C(C#N)=C(NC(C)C(=O)Nc1ccc2ccccc2c1)c1sccc1C(F)(F)F (racemic) [Compound 653]
Log P (pH 2.7): 4.01^[a]

SMILES: CCOC(=O)C(C#N)=C(NC(C)COc1c(C)cccc1C)c1sccc1C(F)(F)F (racemic) [Compound 654]
Log P (pH 2.7): 4.89^[a]

SMILES: CCOC(=O)C(C#N)=C(NC(C(=O)OC)C(C)C)c1sccc1C(F)(F)F (racemic) [Compound 658]
Log P (pH 2.7): 3.62^[a]

SMILES: CCOC(=O)C(C#N)=C(NC(C)C(N)=O)c1sccc1C(F)(F)F (racemic) [Compound 660]
Log P (pH 2.7): 2.13^[a]

— patent US8476197B2, “Aminopropenoates as fungicides” (priority 2009, dated 2013)
